The test system of experiment [1] is TNFα production in LPS-stimulated human monocytes. Nature of the experiment: Cot Monocyte TNFα Cell Based Assay. Conditions: Homo sapiens, Monocyte, read-out: EC50 TNF. The procedure, abridged: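 TR-FRET read-out of total secreted TNFα, normalized as % control (unstimulated = 0%, LPS-stimulated = 100%). Cells (5,000/well) were exposed to compound 1 h at 37 °C, then to 50 pg/ml LPS for a further 4 h.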

Experiment [2] deals with T1, human Cot catalytic domain (30-397 amino acids) (Homo sapiens, UniProt P41279).
T1 construct: Purified recombinant human Cot catalytic domain (30-397 amino acids) was purchased from Cama Biosciences; purchased Cama Biosciences (so in the source)
Nature of the experiment: High Throughput Cot Biochemical Assay (KinEASE TR-FRET). Conditions: read-out: IC50 HTRF. The gist of the method:
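TR-FRET readout: Eu-labeled phospho-specific antibody binds XL665-tagged STK3 peptide after phosphorylation by Cot (aa 30-397, 5 nM). Conditions: 400 μM ATP, 1 μM peptide, MOPS pH 7.0 buffer with MgOAc, DTT, BSA, NP-40, glycerol; 0.1% DMSO.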

Where [3] appears, read: TNFα in LPS-stimulated human monocytes.
The mark [4] stands for this setting: Cot KinEASE TR-FRET (HTRF) biochemical assay, 400 μM ATP.
Where [5] appears, read: Cot biochemical HTRF (KinEASE TR-FRET) assay.
[6] abbreviates: LPS-stimulated human monocytes, TNFα TR-FRET.
The mark [7] stands for this setting: Cot KinEASE TR-FRET, 400 μM ATP.

The structures appear in SMILES notation. Read-outs that look alike come from different tables or passages of the source.

T1 sequence (P41279 30-397): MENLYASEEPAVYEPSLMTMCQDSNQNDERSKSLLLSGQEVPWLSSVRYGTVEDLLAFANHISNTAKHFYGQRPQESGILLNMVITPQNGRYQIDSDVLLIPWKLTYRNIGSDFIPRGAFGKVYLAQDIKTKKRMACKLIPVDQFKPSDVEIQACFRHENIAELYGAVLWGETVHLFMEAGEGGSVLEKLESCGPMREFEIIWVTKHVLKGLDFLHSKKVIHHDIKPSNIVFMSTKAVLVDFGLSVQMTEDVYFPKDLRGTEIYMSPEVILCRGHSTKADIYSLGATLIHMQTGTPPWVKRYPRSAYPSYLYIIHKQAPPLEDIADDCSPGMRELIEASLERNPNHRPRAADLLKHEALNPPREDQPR

Turning to `CC(C)(C)CNc1c(C#N)cnc2c(Cl)cc(N[C@H](c3cn(C4CC4)nn3)c3ccccc3CO)cc12` [Example 114, (S)-8-chloro-6-(((1-cyclopropyl-1H-1,2,3-triazol-4-yl)(2-(hydroxymethyl)phenyl)methyl)amino)-4-(neopentylamino) quinoline-3-carbonitrile], the EC50 in experiment [1] (setting [3]) is 190 nM. Besides, in experiment [2] (setting [4]), the IC50 was found to be 6 nM.
Take `COC[C@H](C)Nc1c(C#N)cnc2c(Cl)cc(N[C@@H](c3ccccc3)c3cn(C4CCN(C(C)(C)C)CC4)nn3)cc12` [Example 557, 6-(((S)-(1-(1-(tert-butyl)piperidin-4-yl)-1H-1,2,3-triazol-4-yl)(phenyl)methyl)amino)-8-chloro-4-(((S)-1-methoxypropan-2-yl)amino)quinoline-3-carbonitrile]: in experiment [1] (setting [3]), the EC50 was above 10000 nM. In experiment [2] (setting [5]), the IC50 is 999 nM.
Turning to `CC[C@@H](Nc1c(C#N)cnc2c(Cl)cc(N[C@@H](c3ccc(F)cc3)c3cn(CC(=O)O)nn3)cc12)c1ccccc1` [Example 115, 2-(4-((S)-((8-chloro-3-cyano-4-(((R)-1-phenylpropyl)amino)quinolin-6-yl)amino)(4-fluorophenyl)methyl)-1H-1,2,3-triazol-1-yl) acetic acid], in experiment [1] (setting [3]), the EC50 was above 10000 nM. The IC50 in experiment [2] (setting [4]) is 3 nM.
As for `N#Cc1cnc2c(Cl)cc(N[C@@H](c3ccccc3)c3c[nH]nn3)cc2c1Nc1ccc(F)c(Cl)c1` [Example 667, (S)-8-chloro-4-((3-chloro-4-fluorophenyl)amino)-6-((phenyl(1H-1,2,3-triazol-4-yl)methyl)amino)quinoline-3-carbonitrile], in experiment [1] (setting [3]), the EC50 was found to be 887 nM. In addition, in experiment [2] (setting [5]), the IC50 was determined as 28 nM.
Consider `[2H][C@](Nc1cc(Cl)c2ncc(C#N)c(Nc3cccc4ccccc34)c2c1)(c1ccc(F)cc1)c1cn(C2CC2)nn1` [Example 933, (S)-8-chloro-6-(((1-cyclopropyl-1H-1,2,3-triazol-4-yl)(4-fluorophenyl)methyl-d)amino)-4-(naphthalen-1-ylamino) quinoline-3-carbonitrile], for which the EC50 in experiment [1] (setting [6]) was at least 1000 nM. Also, the IC50 in experiment [2] (setting [7]) turned out to be 314 nM.
Regarding `[2H][C@](Nc1cc(Cl)c2ncc(C#N)c(N[C@@H]3C[C@H]3CC)c2c1)(c1ccc(F)cc1)c1cn(C2CC2)nn1` [Example 155, 8-chloro-6-(((S)-(1-cyclopropyl-1H-1,2,3-triazol-4-yl)(4-fluorophenyl)methyl-d)amino)-4-(((1R,2R)-2-ethylcyclopropyl)amino)quinoline-3-carbonitrile], the EC50 in experiment [1] (setting [3]) amounted to 348 nM. The IC50 in experiment [2] (setting [4]) turned out to be 36 nM.
Consider `Cc1c(-c2cnn(C)c2)cccc1[C@H](Nc1cc(C#N)c2ncc(C#N)c(NCC(C)(C)C)c2c1)c1cn(C2(C(F)F)CC2)nn1` [Example 1142, (S)-6-(((1-(1-(difluoromethyl)cyclopropyl)-1H-1,2,3-triazol-4-yl)(2-methyl-3-(1-methyl-1H-pyrazol-4-yl)phenyl)methyl)amino)-4-(neopentylamino)quinoline-3,8-dicarbonitrile], for which, in experiment [1] (setting [6]), the EC50 is 31 nM. For the same molecule, the IC50 in experiment [2] (setting [7]) was determined as 2 nM.
For `CC(C)(C)CNc1c(C#N)cnc2c(C#N)cc(N[C@@H](c3ccc(F)cc3)c3cn(C4(C)CC4)nn3)cc12` [Example 978, (S)-6-(((4-fluorophenyl)(1-(1-methylcyclopropyl)-1H-1,2,3-triazol-4-yl)methyl)amino)-4-(neopentylamino)quinoline-3,8-dicarbonitrile] the same measures were 65 nM and 5 nM.
For `[2H][C@@](Nc1cc(Cl)c2ncc(C#N)c(NCC(C)(C)C)c2c1)(c1cn(C2(C)CC2)nn1)c1c(F)cccc1Cl` [Example 1047, (S)-8-chloro-6-(((2-chloro-6-fluorophenyl)(1-(1-methylcyclopropyl)-1H-1,2,3-triazol-4-yl)methyl-d)amino)-4-(neopentylamino)quinoline-3-carbonitrile] the same measures were at least 1000 nM and 101 nM.
For `CC(C)(C)CNc1c(C#N)cnc2c(C#N)cc(N[C@H](c3cn(C4(C)CC4)nn3)c3ccccc3Cl)cc12` [Example 962, (S)-6-(((2-chlorophenyl)(1-(1-methylcyclopropyl)-1H-1,2,3-triazol-4-yl)methyl)amino)-4-(neopentylamino)quinoline-3,8-dicarbonitrile] the same measures were 116 nM and 7 nM.
`[2H][C@](Nc1cc(Cl)c2ncc(C#N)c(Nc3cnc(F)c(F)c3)c2c1)(c1ccc(F)cc1)c1cn(C2CS(=O)(=O)C2)nn1` [Example 359, (S)-8-chloro-4-((5,6-difluoropyridin-3-yl)amino)-6-(((1-(1,1-dioxidothietan-3-yl)-1H-1,2,3-triazol-4-yl)(4-fluorophenyl)methyl-d)amino)quinoline-3-carbonitrile]: in experiment [1] (setting [3]), the EC50 worked out at 2260 nM. For the same molecule, in experiment [2] (setting [4]), the IC50 was 53 nM.
Take `N#Cc1cnc2c(Cl)cc(N[C@@H](c3ccccc3)c3cn(CCCN4CCCC4)nn3)cc2c1Nc1ccc(F)c(C#N)c1F` [Example 469, (S)-8-chloro-4-((3-cyano-2,4-difluorophenyl)amino)-6-((phenyl(1-(3-(pyrrolidin-1-yl)propyl)-1H-1,2,3-triazol-4-yl)methyl)amino)quinoline-3-carbonitrile]: the EC50 in experiment [1] (setting [3]) was determined as 315 nM. Further, the IC50 in experiment [2] (setting [5]) was 14 nM.
On to `[2H][C@](Nc1cc(Cl)c2ncc(C#N)c(NC3CC(C)(C)C3)c2c1)(c1ccc(F)cc1)c1cn(C2CC2)nn1` [Example 205, (S)-8-chloro-6-(((1-cyclopropyl-1H-1,2,3-triazol-4-yl)(4-fluorophenyl)methyl-d)amino)-4-((3,3-dimethylcyclobutyl)amino)quinoline-3-carbonitrile], for which the EC50 in experiment [1] (setting [3]) worked out at 873 nM. Also, the IC50 in experiment [2] (setting [4]) came to 38 nM.
For `[2H][C@@](Nc1cc(Cl)c2ncc(C#N)c(Nc3cnc(F)c(F)c3)c2c1)(c1cn(C2CC2)nn1)c1ccccc1Cl` [Example 358, (S)-8-chloro-6-(((2-chlorophenyl)(1-cyclopropyl-1H-1,2,3-triazol-4-yl)methyl-d)amino)-4-((5,6-difluoropyridin-3-yl)amino)quinoline-3-carbonitrile] the same measures were 673 nM and 12 nM.
For `[2H][C@](Nc1cc(Cl)c2ncc(C#N)c(N[C@@H]3CCOCC3(C)C)c2c1)(c1ccc(F)cc1)c1cn(C2CC2)nn1` [Example 146, 8-chloro-6-(((S)-(1-cyclopropyl-1H-1,2,3-triazol-yl)(4-fluorophenyl)methyl-d)amino)-4-(((R)-3,3-dimethyltetrahydro-2H-pyran-4-yl)amino) quinoline-3-carbonitrile] the same measures were 895 nM and 95 nM.
For `[2H][C@](Nc1cc(Cl)c2ncc(C#N)c(NCC(C)(C)CCl)c2c1)(c1ccc(F)cc1)c1cn(C2CC2)nn1` [Example 192, (S)-8-chloro-4-((3-chloro-2,2-dimethylpropyl)amino)-6-(((1-cyclopropyl-1H-1,2,3-triazol-4-yl)(4-fluorophenyl)methyl-d)amino)quinoline-3-carbonitrile] the same measures were 107 nM and 3 nM.
`[2H][C@](Nc1cc(Cl)c2ncc(C#N)c(N[C@H]3CCCC[C@@H]3O)c2c1)(c1ccc(F)cc1)c1cn(C2CC2)nn1` [Example 236, 8-chloro-6-(((S)-(1-cyclopropyl-1H-1,2,3-triazol-4-yl)(4-fluorophenyl)methyl-d)amino)-4-(((1S,2S)-2-hydroxycyclohexyl)amino) quinoline-3-carbonitrile]: the EC50 in experiment [1] (setting [3]) worked out at 6630 nM. In addition, in experiment [2] (setting [4]), the IC50 came to 294 nM.
The like results for `[2H][C@](Nc1cc(Cl)c2ncc(C#N)c(Nc3cnc(F)c(Cl)c3)c2c1)(c1ccc(F)cc1)c1cn(C2CC2)nn1` [Example 338, (S)-8-chloro-4-((5-chloro-6-fluoropyridin-3-yl)amino)-6-(((1-cyclopropyl-1H-1,2,3-triazol-4-yl)(4-fluorophenyl)methyl-d)amino)quinoline-3-carbonitrile] were, in that order, 183 nM and 8 nM.
For `[2H][C@@](Nc1cc(Cl)c2ncc(C#N)c(NCC(C)(C)C)c2c1)(c1cn(C23CC(C2)C3)nn1)c1ccccc1Cl` [Example 86, (S)-6-(((1-(bicyclo[1.1.1]pentan-1-yl)-1H-1,2,3-triazol-4-yl)(2-chlorophenyl)methyl-d)amino)-8-chloro-4-(neopentylamino) quinoline-3-carbonitrile] the same measures were 244 nM and 22 nM.
In the case of `CC(C)(C)CNc1c(C#N)cnc2c(Cl)cc(N[C@@H](c3ccc(F)cc3)c3cn(C4(C(N)=O)CCC4)nn3)cc12` [Example 992, (S)-1-(4-(((8-chloro-3-cyano-4-(neopentylamino)quinolin-6-yl)amino)(4-fluorophenyl)methyl)-1H-1,2,3-triazol-1-yl) cyclobutane-1-carboxamide], the EC50 in experiment [1] (setting [6]) was 76 nM. Moreover, in experiment [2] (setting [7]), the IC50 is 5 nM.
The like results for `N#Cc1cnc2c(Cl)cc(N[C@H](c3cn(C4CC4)nn3)c3ccccc3Cl)cc2c1NCC12CC(C1)C2` [Example 928, (S)-4-((bicyclo[1.1.1]pentan-1-ylmethyl)amino)-8-chloro-6-(((2-chlorophenyl)(1-cyclopropyl-1H-1,2,3-triazol-4-yl)methyl)amino)quinoline-3-carbonitrile] were, in that order, 443 nM and 68 nM.

(Values after US10316017B2, “COT modulators and methods of use thereof” (Gilead Sciences, Inc., priority 2015, dated 2019).)
